Measured values published in US9090667B2, “Cyclic peptide from Nonomuraea sp., process for the production thereof, and pharmaceutical composition for the prevention or treatment of mycobacteria related disease comprising the same” (priority 2011, dated 2015).
Values after ≈ are worked out from the molar mass of the structure shown. Where two headings read alike, the source gives them in different places. Numbered stars: 1 amine (or outer) side, 2 acyl side, 3 side chain; on linkers, the order of the positions; unused ones are H or OH. Bridge positions count the residues as written; N and C are the ends. Square brackets hold non-standard residues; d marks the D form. Peptide text beside a SMILES is read from it. * marks the point of attachment. ξ: configuration not given here. NMeTrp(4-OMe) = CN[CH](Cc1c[nH]c2cccc(OC)c12)C(=O)O; X1 = O=C(C(N[*:1])C(O)c1ccccc1)[*:2]; NMeI = CC[CH](C)[CH](NC)C(=O)O; ξNMe2Val = CC(C)C(C(=O)*)N(C)C; NMeT = CN[CH](C(=O)O)[CH](C)O; NMeL = CN[CH](CC(C)C)C(=O)O; NMeV = CN[CH](C(=O)O)C(C)C

How the values were obtained:
[1] = system: M. tuberculosis H37Rv; assay: microbe, parasite or virus in culture; settings: Mycobacterium tuberculosis
[2] = system: Nonomuraea sp. MJM5123; assay: Antibiotic resistance test of the producing strain; format: cell-based; settings: ISP2 medium, 2 weeks at 28° C.; for Growth in the presence of antibiotics: 50 μg/ml
Procedure: To test for melanoid pigments, peptone yeast extract iron agar (ISP6) and tyrosine agar (ISP7, with or without tyrosine) was used. Temperature range, NaCl tolerance and pH range for growth was determined on ISP3 medium and antibiotic resistance test was performed on ISP2 medium for 2 weeks at 28° C.

[3] = system: M. tuberculosis H37Rv
[4] = system: M. tuberculosis X004244; settings: East Asian clade, strain X004244
[5] = system: M. smegmatis; assay: Antibacterial selectivity MIC; format: cell-based, Mycobacterium smegmatis; settings: compared with M. tuberculosis
Procedure: (§1) Selectivities of H-14 and H-16 were determined by screening them against Escherichia coli, a Gram-negative bacterium, Staphylococcus aureus, a Gram-positive bacterium, Candida albicans, a yeast, and six mycobacterial species (Table 16).

[6] = system: M. abscesses; assay: Antibacterial selectivity MIC; format: cell-based, Mycobacterium abscessus; settings: for activity: M. abscesses, compared with the other mycobacteria; for MIC: M. abscessus
Procedure: as §1

[7] = system: Vero cells; assay: Toxicity against mammalian cells (Vero); format: cell-based, African green monkey; settings: for IC50: Vero cells, read-out: Vero cell IC50; for in vitro mammalian cell toxicity: at 100-fold their MBC; for cytotoxicity: highest testing concentration (32 μM)
Procedure: Cytoxicities of H-14 and H-16 against mammalian cells were evaluated by testing against Vero cells, an African green monkey kidney cell line (Table 18). No cytoxicity was found for either compound at even the highest testing concentration (32 μM).

[8] = system: Escherichia coli; assay: Antibacterial selectivity MIC; format: cell-based; settings: E. coli; for activity: at 31 μM
Procedure: as §1

[9] = system: Candida albicans; assay: Antibacterial selectivity MIC; format: cell-based; settings: C. albicans; for activity: at 31 μM
Procedure: as §1

[10] = system: Staphylococcus aureus; assay: Antibacterial selectivity MIC; format: cell-based; settings: S. aureus; for activity: at 31 μM
Procedure: as §1

[11] = system: M. tuberculosis H37Pv; format: cell-based, Mycobacterium tuberculosis
[12] = system: M. tuberculosis X005282; settings: Euro-American clade, strain X005282
[13] = system: M. tuberculosis X004439; settings: East Asian clade, strain X004439
[14] = system: M. tuberculosis X003899; settings: IndoOceanic clade, strain X003899
[15] = system: M. tuberculosis X005319; settings: Euro-American clade, strain X005319
[16] = system: M. tuberculosis X001354; settings: East African Indian clade, strain X001354
[17] = system: nonreplicating M. tuberculosis; format: cell-based, Mycobacterium tuberculosis; settings: for concentration effecting a 99% reduction in viability (MBC under low oxygen): 10 days incubation under non-replicating conditions, cfu readout; for concentration reducing viability of non-replicating M. tuberculosis by one log10: LORA
[18] = system: M. tuberculosis H37Rv; assay: Aerobic MBC99; format: cell-based, Mycobacterium tuberculosis; settings: for classification from MBC99 versus MIC: MBC99 approximately two-fold higher than MIC; for MBC99: aerobic, H37Rv, minimum concentration that kills 99% of organisms
[19] = aerobic, replicating M. tuberculosis H37Rv, concentration inhibiting growth by 90%

`CO[C@H]1/C=C/O[C@@]2(C)Oc3c(C)c(O)c4c(O)c(c(/C=N/N5CCN(C)CC5)c(O)c4c3C2=O)NC(=O)/C(C)=C\C=C\[C@H](C)[C@H](O)[C@@H](C)[C@@H](O)[C@@H](C)[C@H](OC(C)=O)[C@@H]1C` [rifampin] was tested, and the MIC [1] was 0.09 µM (≈ 0.0741 µg/mL).

`CN[C@@H]1[C@@H](O[C@H]2O[C@H](CO)[C@@H](N)[C@H](O)[C@H]2O)OC2C[C@@H](N)[C@@H](O[C@H]3[C@H](O)[C@@H](O)[C@H](N)C[C@@H]3N)OC2[C@@H]1O` (stereo partly shown) [Apramycin] was tested, and the “Growth in the presence of antibiotics” value [2] was “−” and the “susceptibility of MJM5123 to the antibiotic” value (“susceptibility of MJM5123” for short) [2] was “susceptible”.

For `CN[C@H](CC(C)C)C(=O)N[C@H]1C(=O)N[C@@H](CC(N)=O)C(=O)N[C@H]2C(=O)N[C@H]3C(=O)N[C@H](C(=O)N[C@H](C(=O)O)c4cc(O)cc(O)c4-c4cc3ccc4O)[C@H](O)c3ccc(c(Cl)c3)Oc3cc2cc(c3O[C@@H]2O[C@H](CO)[C@@H](O)[C@H](O)[C@H]2O[C@H]2C[C@](C)(N)[C@H](O)[C@H](C)O2)Oc2ccc(cc2Cl)[C@H]1O` [Vancomycin], the “Growth in the presence of antibiotics” value [2] was “−” and the “susceptibility of MJM5123” value [2] was “susceptible”.

`CC1(C)S[C@@H]2[C@H](NC(=O)[C@H](N)c3ccccc3)C(=O)N2[C@H]1C(=O)O` [Ampicillin] was tested, and the “Growth in the presence of antibiotics” value [2] was “+” and the “susceptibility of MJM5123” value [2] was “resistant”.

For `NNC(=O)c1ccncc1` [isoniazid], the MIC [1] was 0.47 µM (≈ 0.0645 µg/mL).

`CCC(C)C(C(=O)NC1C(=O)N(C)C(C(C)O)C(=O)NC(C(C)C)C(=O)N(C)C(CC(C)C)C(=O)NC(C(C)C)C(=O)N(C)C(C(C)C)C(=O)N(C)C(Cc2c[nH]c3cccc(OC)c23)C(=O)NC(C(C)C)C(=O)NC(C(O)c2ccccc2)C(=O)NC(C(C)C)C(=O)OC1C)N(C)C(=O)C(NC(=O)C(C(C)C)N(C)C)C(C)C` (stereo not shown) [H-14] (ξNMe2Val-V[NMeI]T[NMeT]V[NMeL]V[NMeV][NMeTrp(4-OMe)]V[X1]V; ester 3-C; configuration not given here) showed an MIC ([3]; H37Rv reference in Table 15) of 0.38 µM (≈ 0.608 µg/mL), an MIC ([3]; H37Rv reference in Table 19) of 0.16 µM (≈ 0.256 µg/mL) and an MIC [3, 19] of 0.16 µM (≈ 0.256 µg/mL). For the same molecule, the MIC [4] was 0.13 µM (≈ 0.208 µg/mL), the “activity” value [5] was “activity was lower” and the “activity” value [6] was “significantly less active”. For the same molecule, the MIC [6] was over 63 µM, the IC50 [7] was over 32 µM and the “in vitro mammalian cell toxicity” value [7] was “no in vitro mammalian cell toxicity”. The “cytotoxicity” value [7] was “No cytoxicity”, the MIC [8] was over 32 µM and the “antimicrobial activity” value [8] was “Neither of the compounds displayed antimicrobial activity”. The “activity” value [8] was “no activity”, the MIC [9] was over 32 µM and the “antimicrobial activity” value [9] was “Neither of the compounds displayed antimicrobial activity”. For the same molecule, the “activity” value [9] was “no activity”, the MIC [10] was over 32 µM and the “antimicrobial activity” value [10] was “Neither of the compounds displayed antimicrobial activity”. The “activity” value [10] was “no activity”, the “MIC vs. M. tuberculosis” value ([11]; 0.5% BSA) was 0.16 µM (≈ 0.256 µg/mL) and the “MIC vs. M. tuberculosis” value ([11]; 4% BSA) was 0.58 µM (≈ 0.928 µg/mL). For the same molecule, the “MIC vs. M. tuberculosis” value ([11]; 10% BSA) was 0.36 µM (≈ 0.576 µg/mL), the MIC [12] was 0.14 µM (≈ 0.224 µg/mL) and the MIC [13] was 0.29 µM (≈ 0.464 µg/mL). It also gave an MIC [14] of 0.23 µM (≈ 0.368 µg/mL), an MIC [15] of 0.36 µM (≈ 0.576 µg/mL) and an MIC [16] of 0.38 µM (≈ 0.608 µg/mL). The “concentration effecting a 99% reduction in viability (MBC under low oxygen)” value [17] was “approximately 1.5 μM”, the “concentration reducing viability of non-replicating M. tuberculosis by one log10” value [17] was “approximately 1.5 μM” and the “classification from MBC99 versus MIC” value [18] was “bactericidal”. It also gave an MBC99 [18] of 0.34 µM (≈ 0.544 µg/mL).

For `CCC(C)C(C(=O)NC1C(=O)N(C)C(C(C)O)C(=O)NC(C(C)C)C(=O)N(C)C(CC(C)C)C(=O)NC(C(C)C)C(=O)N(C)C(C(C)C)C(=O)N(C)C(Cc2c[nH]c3cccc(OC)c23)C(=O)NC(C(C)C)C(=O)NC(Cc2ccccc2)C(=O)NC(C(C)C)C(=O)OC1C)N(C)C(=O)C(NC(=O)C(C(C)C)N(C)C)C(C)C` (stereo not shown) [H-16] (ξNMe2Val-V[NMeI]T[NMeT]V[NMeL]V[NMeV][NMeTrp(4-OMe)]VFV; ester 3-C; configuration not given here), the MIC ([3]; H37Rv reference in Table 15) was 0.37 µM (≈ 0.586 µg/mL), the MIC ([3]; H37Rv reference in Table 19) was 0.16 µM (≈ 0.253 µg/mL) and the MIC [3, 19] was 0.16 µM (≈ 0.253 µg/mL). The MIC [4] was 0.09 µM (≈ 0.143 µg/mL), the “activity” value [5] was “activity was lower” and the “activity” value [6] was “significantly less active”. For the same molecule, the MIC [6] was over 32 µM, the IC50 [7] was over 32 µM and the “in vitro mammalian cell toxicity” value [7] was “no in vitro mammalian cell toxicity”. For the same molecule, the “cytotoxicity” value [7] was “No cytoxicity”, the MIC [8] was over 32 µM and the “antimicrobial activity” value [8] was “Neither of the compounds displayed antimicrobial activity”. The “activity” value [8] was “no activity”, the MIC [9] was over 32 µM and the “antimicrobial activity” value [9] was “Neither of the compounds displayed antimicrobial activity”. The “activity” value [9] was “no activity”, the MIC [10] was over 32 µM and the “antimicrobial activity” value [10] was “Neither of the compounds displayed antimicrobial activity”. For the same molecule, the “activity” value [10] was “no activity”, the MIC [12] was 0.14 µM (≈ 0.222 µg/mL) and the MIC [13] was 0.19 µM (≈ 0.301 µg/mL). It also gave an MIC [14] of 0.19 µM (≈ 0.301 µg/mL), an MIC [15] of 0.34 µM (≈ 0.539 µg/mL) and an MIC [16] of 0.37 µM (≈ 0.586 µg/mL). The “concentration effecting a 99% reduction in viability (MBC under low oxygen)” value [17] was “approximately 1.5 μM”, the “concentration reducing viability of non-replicating M. tuberculosis by one log10” value [17] was “approximately 1.5 μM” and the “classification from MBC99 versus MIC” value [18] was “bactericidal”. For the same molecule, the MBC99 [18] was 0.19 µM (≈ 0.301 µg/mL).

In the case of `C=C(NC(=O)C(=C)NC(=O)c1csc(C2=N[C@@H]3c4csc(n4)[C@H]4NC(=O)c5csc(n5)[C@H]([C@](C)(O)[C@@H](C)O)NC(=O)[C@H]5CSC(=N5)/C(=C/C)NC(=O)[C@H]([C@@H](C)O)NC(=O)c5csc(n5)[C@]3(CC2)NC(=O)[C@H](C)NC(=O)C(=C)NC(=O)[C@H](C)NC(=O)[C@H]([C@@H](C)CC)N[C@@H]2C=Cc3c([C@H](C)O)cc(nc3[C@H]2O)C(=O)O[C@@H]4C)n1)C(N)=O` [Thiostrepton], the “Growth in the presence of antibiotics” value [2] is reported as “−” and the “susceptibility of MJM5123” value [2] is reported as “susceptible”.

`NC[C@H]1O[C@H](O[C@H]2[C@H](O)[C@@H](O[C@H]3O[C@H](CO)[C@@H](O)[C@H](N)[C@H]3O)[C@H](N)C[C@@H]2N)[C@H](O)[C@@H](O)[C@@H]1O` [Kanamycin] was tested, and the “Growth in the presence of antibiotics” value [2] was “−”.
